Laboratory results from ChEMBL document CHEMBL1933054, “Structure-based design of PDK1 inhibitors” (Bioorg Med Chem Lett, 2012).

Assays:
[1] = biological target: T1, 3-phosphoinositide-dependent protein kinase 1 (Homo sapiens, UniProt O15530); experiment: Inhibition of PDK1 using [gamma33P]-ATP as substrate after 30 mins by scintillation counting
T1 sequence (O15530 whole entry): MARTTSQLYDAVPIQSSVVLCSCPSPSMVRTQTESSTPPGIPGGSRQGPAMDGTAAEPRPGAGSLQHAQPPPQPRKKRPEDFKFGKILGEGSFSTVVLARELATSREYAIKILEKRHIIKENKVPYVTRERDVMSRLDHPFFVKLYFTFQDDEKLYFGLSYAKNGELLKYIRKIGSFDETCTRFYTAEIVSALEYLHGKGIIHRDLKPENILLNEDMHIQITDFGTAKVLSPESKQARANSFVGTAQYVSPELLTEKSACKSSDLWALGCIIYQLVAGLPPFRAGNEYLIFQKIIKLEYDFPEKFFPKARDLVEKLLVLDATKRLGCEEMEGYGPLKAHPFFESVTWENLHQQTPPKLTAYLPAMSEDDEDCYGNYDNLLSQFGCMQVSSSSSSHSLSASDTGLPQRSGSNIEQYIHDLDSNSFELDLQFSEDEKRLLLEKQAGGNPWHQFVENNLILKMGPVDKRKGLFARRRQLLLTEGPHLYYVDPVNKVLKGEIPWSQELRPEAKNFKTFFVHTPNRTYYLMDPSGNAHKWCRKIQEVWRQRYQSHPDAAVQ

[2] = biological target: Cyclin-dependent kinase 2 (Homo sapiens, UniProt P24941); experiment: Inhibition of CDK2
[3] = biological target: T2, Receptor-type tyrosine-protein kinase FLT3 (Homo sapiens, UniProt P36888); experiment: Inhibition of Flt3
T2 sequence (P36888 whole entry): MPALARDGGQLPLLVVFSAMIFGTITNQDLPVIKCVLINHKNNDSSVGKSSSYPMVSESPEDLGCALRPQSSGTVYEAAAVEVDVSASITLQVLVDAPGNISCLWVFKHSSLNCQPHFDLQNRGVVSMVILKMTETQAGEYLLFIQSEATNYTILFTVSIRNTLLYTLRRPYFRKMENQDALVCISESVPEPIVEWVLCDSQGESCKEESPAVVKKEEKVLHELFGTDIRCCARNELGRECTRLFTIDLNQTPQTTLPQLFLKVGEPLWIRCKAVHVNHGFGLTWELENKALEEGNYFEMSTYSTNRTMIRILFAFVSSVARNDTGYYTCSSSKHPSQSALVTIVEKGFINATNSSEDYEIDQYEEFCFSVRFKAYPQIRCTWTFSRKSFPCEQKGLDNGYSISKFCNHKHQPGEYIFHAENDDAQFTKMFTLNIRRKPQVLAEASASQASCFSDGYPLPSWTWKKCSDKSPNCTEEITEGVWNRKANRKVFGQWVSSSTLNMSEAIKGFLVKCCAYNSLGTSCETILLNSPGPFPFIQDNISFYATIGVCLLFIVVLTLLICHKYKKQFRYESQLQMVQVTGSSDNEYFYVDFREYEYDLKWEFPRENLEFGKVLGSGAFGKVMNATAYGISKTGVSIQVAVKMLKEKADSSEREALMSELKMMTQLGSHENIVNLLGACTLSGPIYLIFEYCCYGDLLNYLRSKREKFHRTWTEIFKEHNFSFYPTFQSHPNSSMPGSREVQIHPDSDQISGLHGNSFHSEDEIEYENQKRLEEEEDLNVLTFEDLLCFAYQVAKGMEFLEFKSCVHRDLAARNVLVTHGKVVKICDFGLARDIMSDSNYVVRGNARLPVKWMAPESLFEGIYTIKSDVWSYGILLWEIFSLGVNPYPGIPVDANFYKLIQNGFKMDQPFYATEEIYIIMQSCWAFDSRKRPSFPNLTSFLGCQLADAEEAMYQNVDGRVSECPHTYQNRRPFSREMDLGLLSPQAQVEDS

[4] = Half life in human liver microsomes; assay type: ADME, Microsome
[5] = Oral bioavailability in mouse; assay type: ADME, organism-based; settings: in vivo
[6] = biological target: Tyrosine-protein kinase JAK2 (Homo sapiens, UniProt O60674); experiment: Inhibition of JAK2
Chain of Tyrosine-protein kinase JAK2 (O60674 whole entry): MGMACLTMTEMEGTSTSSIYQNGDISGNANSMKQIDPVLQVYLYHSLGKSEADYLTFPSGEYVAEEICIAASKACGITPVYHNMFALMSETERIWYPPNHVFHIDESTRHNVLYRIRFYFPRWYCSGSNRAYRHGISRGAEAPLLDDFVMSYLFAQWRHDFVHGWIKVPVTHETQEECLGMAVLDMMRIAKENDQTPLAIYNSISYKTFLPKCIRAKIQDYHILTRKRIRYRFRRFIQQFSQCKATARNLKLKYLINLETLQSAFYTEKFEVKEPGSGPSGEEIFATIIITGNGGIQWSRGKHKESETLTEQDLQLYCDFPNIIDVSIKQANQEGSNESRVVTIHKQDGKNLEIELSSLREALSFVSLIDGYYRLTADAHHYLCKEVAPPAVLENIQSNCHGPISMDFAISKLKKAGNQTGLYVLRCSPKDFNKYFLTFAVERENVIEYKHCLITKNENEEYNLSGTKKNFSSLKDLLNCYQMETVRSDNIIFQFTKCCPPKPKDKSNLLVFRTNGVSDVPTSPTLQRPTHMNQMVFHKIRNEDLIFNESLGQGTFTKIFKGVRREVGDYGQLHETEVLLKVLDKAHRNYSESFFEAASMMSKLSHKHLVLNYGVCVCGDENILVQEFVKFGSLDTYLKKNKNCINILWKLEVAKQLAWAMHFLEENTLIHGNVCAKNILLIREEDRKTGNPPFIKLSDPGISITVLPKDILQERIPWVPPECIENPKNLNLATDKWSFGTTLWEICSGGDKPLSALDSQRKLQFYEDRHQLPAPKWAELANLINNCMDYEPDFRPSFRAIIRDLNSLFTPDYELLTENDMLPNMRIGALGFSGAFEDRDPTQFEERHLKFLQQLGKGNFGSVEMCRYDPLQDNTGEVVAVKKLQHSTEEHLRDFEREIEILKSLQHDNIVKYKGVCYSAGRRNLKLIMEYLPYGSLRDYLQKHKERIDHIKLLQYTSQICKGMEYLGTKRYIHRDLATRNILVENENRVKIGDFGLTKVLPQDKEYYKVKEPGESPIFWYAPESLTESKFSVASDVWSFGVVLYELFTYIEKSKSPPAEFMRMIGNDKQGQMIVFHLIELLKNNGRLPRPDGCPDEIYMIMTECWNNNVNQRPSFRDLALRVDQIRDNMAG

| SMILES | IC50 [1] [nM] | IC50 [2] [nM] | IC50 [3] [nM] | half-life [4] [h] | bioavailability [5] [%] | IC50 [6] [nM] |
| --- | --- | --- | --- | --- | --- | --- |
| CN1C/C=C/CCOc2cccc(c2)-c2nc(nc3[nH]cnc23)Nc2cccc(c2)C1 | 390 | 4100 | 58 |  |  |  |
| COc1ccc(-c2nc(Nc3cccc(NC(=O)N4CCCC4)c3)nc3nc[nH]c23)cc1 |  |  |  | > 1 | 65 |  |
| Cc1cnc2nc1-c1cccc(c1)OCC/C=C/CN(C)Cc1cccc(c1)N2 | 1400 | 150 | 22 |  |  | 180 |
| CC(C)(C(N)=O)C(=O)NCCCNc1nc(Nc2cccc(NC(=O)N3CCCC3)c2)ncc1Br |  | 1500 |  |  |  |  |
| COc1ccc(-c2nc(Nc3cccc(NC(=O)CN)c3)nc3[nH]cnc23)cc1OC | 98 | > 10000 | 350 |  |  | 330 |
| Oc1ccc(-c2nc(Nc3cccc(Cl)c3)nc3[nH]cnc23)cc1 | 1600 | 7000 | 7300 |  |  | 830 |
